# Assay results reported in US20240390298A1, “CYCLOHEXYL BETA-HYDROXY ALKYL AMINES AND MEDICAL USES THEREOF” (ATROGI AB, priority 2021, published 2024).
# Counter-ions that a name gives are not always drawn.
# Key:
# [1] = system: L6-myotubes; test: Measurement of intracellular cAMP levels in differentiated L6 cells (alpha screen cAMP kit), compared to isoproterenol; format: cell-based; conditions: Rattus norvegicus, L6, 0.25 h, agonist 1×10^−5 M, 15 min, read-out: Biological example 2: intracellular cAMP levels, activity compared to that of isoproterenol
# Experimental: (§1) L6-myoblasts were grown in Dulbecco's Modified Eagle's Medium (DMEM) containing 1 g/L glucose supplemented with 10% fetal bovine serum, 2 mM L-Glutamine, 50 U/mL penicillin, 50 μg/mL streptomycin and 10 mM HEPES. Cells were plated at 1×10^5 cells per mL in 24-well plates. After reaching 90% confluence the cells were grown in medium containing 2% FBS for 7 days where upon cells differentiated into myotubes.
# Differentiated cells were serum-starved overnight and stimulated with an agonist, final concentration 1×10^−5 M, for 15 min in stimulation buffer (HBSS supplemented with 1% BSA, 5 mM HEPES and 1 mM IBMX, pH 7.4). The medium was aspirated and 100 μL of 95% EtOH was added to each well of the 24-well plate and cells were kept at −20° C. overnight. The EtOH was allowed to evaporate and 500 μL of lysis buffer (1% BSA, 5 mM HEPES and 0.3% Tween-20, pH 7.4) was added to each well. The plate was kept at −80° C. for 30 min and then at −20° C. until the day of detection when the samples were thawed. Intracellular cAMP levels were detected using an alpha screen cAMP kit (6760635D from Perkin Elmer). The activity for each compound is compared to that of isoproterenol.
# [2] = system: L6-myotubes; test: Glucose uptake in differentiated L6-myotubes (3H-2-deoxyglucose), compared to isoproterenol; format: cell-based; conditions: agonist 1×10^−5 M, 50 nM 3H-2-deoxyglucose; for Emax at 10 µM: read-out: Biological example 1: glucose uptake, activity compared to that of isoproterenol
# Experimental: as §1
# Differentiated L6-myotubes were serum-starved overnight in medium containing 0.5% fatty-acid free BSA and stimulated with an agonist, with a final concentration of 1×10^−5 M. After 1 h 40 min the cells were washed with warm glucose free medium or PBS twice and another portion of agonist was added to the glucose free medium. After 20 min the cells were exposed to 50 nM ^3H-2-deoxyglucose for 10 min before washed with ice cold glucose free medium or PBS three times and lysed with 0.2 M NaOH, 400 μL/well, for 1 h at 60° C. The cell lysate was mixed with 4 mL scintillation buffer (Emulsifier Safe, Perkin Elmer) and the radioactivity was detected in a β-counter (Tri-Carb 4810TR, Perkin Elmer). The activity for each compound is compared to that of isoproterenol.
SMILES,Emax at 10 µM [1] [%],Emax at 10 µM [2] [%],"Biological example 1: glucose uptake, activity compared to that of isoproterenol [2]"
"O[C@@H](CNCCCC1CCC(OCc2ccccc2)CC1)c1cccc(F)c1 (stereo partly drawn) [Example 53, (R)-2-((3-((1r,4S)-4-(Benzyloxy)cyclohexyl)propyl)amino)-1-(3-fluoro-phenyl)ethan-1-ol]",< 25,25 to 50,
"O[C@@H](CNCCCC1CCC(OCc2ccccc2)CC1)c1cncc(F)c1 (stereo partly drawn) [Example 54, (R)-2-((3-((1r,4S)-4-(Benzyloxy)cyclohexyl)propyl)amino)-1-(5-fluoro-pyridin-3-yl)ethan-1-ol]",< 25,25 to 50,
"O[C@@H](CNCCC[C@H]1CC[C@@H](OCc2ccccc2)CC1)c1cccc(F)c1 [Example 55, (R)-2-((3-((1s,4R)-4-(Benzyloxy)cyclohexyl)propyl)amino)-1-(3-fluoro-phenyl)ethan-1-ol]",< 25,25 to 50,
"O[C@@H](CNCCC[C@H]1CC[C@@H](OCc2ccccc2)CC1)c1cncc(F)c1 [Example 56, (R)-2-((3-((1s,4R)-4-(Benzyloxy)cyclohexyl)propyl)amino)-1-(5-fluoro-pyridin-3-yl)ethan-1-ol]",< 25,,+ +
"O[C@@H](CNCCC[C@H]1CC[C@H](O)CC1)c1cccc(F)c1 [Example 57, (1S,4r)-4-(3-(((R)-2-(3-Fluorophenyl)-2-hydroxyethyl)amino)propyl)-cyclohexan-1-ol]",< 25,,+ +
"O[C@@H](CNCCC[C@H]1CC[C@H](O)CC1)c1cncc(F)c1 [Example 58, (1S,4r)-4-(3-(((R)-2-(5-Fluoropyridin-3-yl)-2-hydroxyethyl)amino)-propyl)cyclohexan-1-ol]",< 25,25 to 50,
"O[C@@H](CNCCC[C@H]1CC[C@@H](O)CC1)c1cccc(F)c1 [Example 59, (1R,4s)-4-(3-(((R)-2-(3-Fluorophenyl)-2-hydroxyethyl)amino)propyl)-cyclohexan-1-ol]",< 25,25 to 50,
"O[C@@H](CNCCC[C@H]1CC[C@@H](O)CC1)c1cncc(F)c1 [Example 60, (1R,4s)-4-(3-(((R)-2-(5-Fluoropyridin-3-yl)-2-hydroxyethyl)amino)propyl)-cyclohexan-1-ol]",< 25,,+ +
"CC(C)(CC[C@H]1CC[C@H](O)CC1)NC[C@H](O)c1cccc(F)c1 [Example 61, (1S,4r)-4-(3-(((R)-2-(3-Fluorophenyl)-2-hydroxyethyl)amino)-3-methyl-butyl)cyclohexan-1-ol]",< 25,25 to 50,
"CC(C)(CCC1CCC(O)CC1)NC[C@H](O)c1ccccc1F (stereo partly drawn) [Example 62, (1S,4r)-4-(3-(((R)-2-(2-Fluorophenyl)-2-hydroxyethyl)amino)-3-methyl-butyl)cyclohexan-1-ol]",< 25,,+ + +
"CC(C)(CC[C@H]1CC[C@H](O)CC1)NC[C@H](O)c1cncc(F)c1 [Example 63, (1S,4r)-4-(3-(((R)-2-(5-Fluoropyridin-3-yl)-2-hydroxyethyl)amino)-3-methylbutyl)cyclohexan-1-ol]",< 25,25 to 50,
"CC(C)(CC[C@H]1CC[C@@H](O)CC1)NC[C@H](O)c1cccc(F)c1 [Example 64, (1R,4s)-4-(3-(((R)-2-(3-Fluorophenyl)-2-hydroxyethyl)amino)-3-methyl-butyl)cyclohexan-1-ol]",< 25,,+ + +
"CC(C)(CC[C@H]1CC[C@@H](O)CC1)NC[C@H](O)c1ccccc1F [Example 65, (1R,4s)-4-(3-(((R)-2-(2-Fluorophenyl)-2-hydroxyethyl)amino)-3-methyl-butyl)cyclohexan-1-ol]",25 to 50,,+ + +
"CC(C)(CC[C@H]1CC[C@@H](O)CC1)NC[C@H](O)c1cncc(F)c1 [Example 66, (1R,4s)-4-(3-(((R)-2-(5-Fluoropyridin-3-yl)-2-hydroxyethyl)amino)-3-methylbutyl)cyclohexan-1-ol dihydrochloride]",< 25,,+ +
"CC(=O)N[C@H]1CC[C@H](CNC[C@H](O)c2cccc(F)c2)CC1 [Example 67, N-((1R,4r)-4-((((R)-2-(3-Fluorophenyl)-2-hydroxyethyl)amino)methyl)-cyclohexyl)acetamide]",< 25,25 to 50,
"CC(=O)N[C@H]1CC[C@H](CNC[C@H](O)c2cncc(F)c2)CC1 [Example 68, N-((1R,4r)-4-((((R)-2-(5-Fluoropyridin-3-yl)-2-hydroxyethyl)amino)-methyl)cyclohexyl)acetamide]",< 25,25 to 50,
"O=C(N[C@H]1CC[C@H](CNC[C@H](O)c2cccc(F)c2)CC1)c1ccccc1 [Example 69, N-((1R,4r)-4-((((R)-2-(3-Fluorophenyl)-2-hydroxyethyl)amino)-methyl)cyclohexyl)benzamide]",< 25,,+ + +
"O=C(N[C@H]1CC[C@H](CNC[C@H](O)c2cncc(F)c2)CC1)c1ccccc1 [Example 70, N-((1R,4r)-4-((((R)-2-(5-Fluoropyridin-3-yl)-2-hydroxyethyl)amino)methyl)-cyclohexyl)benzamide]",< 25,25 to 50,
"CS(=O)(=O)N[C@H]1CC[C@H](CNC[C@H](O)c2cccc(F)c2)CC1 [Example 71, N-((1R,4r)-4-((((R)-2-(3-Fluorophenyl)-2-hydroxyethyl)amino)methyl)-cyclohexyl)methanesulfonamide]",< 25,,+ +
"CS(=O)(=O)N[C@H]1CC[C@H](CNC[C@H](O)c2cncc(F)c2)CC1 [Example 72, N-((1R,4r)-4-((((R)-2-(5-Fluoropyridin-3-yl)-2-hydroxyethyl)amino)methyl)-cyclohexyl)methanesulfonamide]",< 25,25 to 50,
"CC(=O)N[C@H]1CC[C@@H](CNC[C@H](O)c2cccc(F)c2)CC1 [Example 73, N-((1S,4s)-4-((((R)-2-(3-Fluorophenyl)-2-hydroxyethyl)amino)-methyl)cyclohexyl)acetamide]",< 25,,+ +
"CC(=O)N[C@H]1CC[C@@H](CNC[C@H](O)c2cncc(F)c2)CC1 [Example 74, N-((1S,4s)-4-((((R)-2-(5-Fluoropyridin-3-yl)-2-hydroxyethyl)amino)-methyl)cyclohexyl)acetamide]",< 25,25 to 50,
"O=C(N[C@H]1CC[C@@H](CNC[C@H](O)c2cccc(F)c2)CC1)c1ccccc1 [Example 75, N-((1S,4s)-4-((((R)-2-(3-Fluorophenyl)-2-hydroxyethyl)amino)methyl)-cyclohexyl)benzamide]",< 25,,+ +
"O=C(N[C@H]1CC[C@@H](CNC[C@H](O)c2cncc(F)c2)CC1)c1ccccc1 [Example 76, N-((1S,4s)-4-((((R)-2-(5-Fluoropyridin-3-yl)-2-hydroxyethyl)amino)methyl)-cyclohexyl)benzamide]",< 25,,+ +
CS(=O)(=O)N[C@H]1CC[C@@H](CNC[C@H](O)c2cccc(F)c2)CC1 [Example 77],< 25,,+ +
"CS(=O)(=O)N[C@H]1CC[C@@H](CNC[C@H](O)c2cncc(F)c2)CC1 [Example 78, N-((1S,4s)-4-((((R)-2-(5-Fluoropyridin-3-yl)-2-hydroxyethyl)amino)methyl)-cyclohexyl)methanesulfonamide]",< 25,,+ +
CC(C)(NC[C@H](O)c1cncc(F)c1)[C@H]1CC[C@H](N)CC1 [Example 79],< 25,< 25,
"CC(=O)N[C@H]1CC[C@H](C(C)(C)NC[C@H](O)c2cncc(F)c2)CC1 [Example 81, N-((1R,4r)-4-(2-(((R)-2-(5-Fluoropyridin-3-yl)-2-hydroxyethyl)amino)-propan-2-yl)cyclohexyl)acetamide]",< 25,,+ + +
"CC(C)(NC[C@H](O)c1cncc(F)c1)[C@H]1CC[C@H](NS(C)(=O)=O)CC1 [Example 83, N-((1R,4r)-4-(2-(((R)-2-(5-Fluoropyridin-3-yl)-2-hydroxyethyl)amino)-propan-2-yl)cyclohexyl)methanesulfonamide]",< 25,25 to 50,
